Assay results taken from patent US20230085307A1, “PYRIDAZINONE COMPOUND AND HERBICIDE” (NISSAN CHEMICAL CORPORATION, priority 2019, published 2023).

How the values were obtained:
Japanese bulrush = assay: Test Example 1: herbicidal activity, application before weed generation under submerged conditions (Table 16, symbol B); assay type: in vivo, Japanese bulrush (Schoenoplectus juncoides); conditions: amount of applied herbicide 320 g/ha
Outline: (§1)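 Submerged Wagner pots (alluvial soil, 4 cm water) sown with weed seeds and planted with 2.5-leaf rice seedlings; emulsifiable concentrate diluted in water applied to water surface on sowing day. Held in greenhouse at 25-30 °C; injury scored 0-5 by herbicidal rate after three weeks.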

oval-leafed pondweed [1] = assay: Test Example 1: herbicidal activity, application before weed generation under submerged conditions (Table 16, symbol C); assay type: in vivo, oval-leafed pondweed (Monochoria vaginalis); conditions: amount of applied herbicide 320 g/ha
Outline: as §1

late watergrass = assay: Test Example 2: herbicidal activity, application during weed generation under submerged conditions (Table 17, symbol A); assay type: in vivo, late watergrass (Echinochloa oryzicola); conditions: AAH 320 g/ha; application during weed generation, submerged conditions
Outline: (§2)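 Wagner pot, alluvial soil, 4 cm flood; mixed sowing of all species; greenhouse 25° C.–30° C. Emulsifiable formulation, water-diluted to predetermined dose, applied to paddy water at 1–2 leaf stage. Effect rated at 3 wk using the earlier test's scoring criteria.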

oval-leafed pondweed [2] = assay: Test Example 2: herbicidal activity, application during weed generation under submerged conditions (Table 17, symbol C); assay type: in vivo, oval-leafed pondweed (Monochoria vaginalis); conditions: AAH 320 g/ha; application during weed generation, submerged conditions
Outline: as §2

barnyard grass [3] = assay: Test Example 3: herbicidal effect by foliage application, Wagner pot (Table 18, symbol H); assay type: in vivo, barnyard grass (Echinochloa crus-galli); conditions: for herbicidal effect on barnyard grass (H): 320 g/ha
Outline: (§3)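 Plants were sown in alluvial soil held under 0.1–0.5 cm standing water and grown 14 days in a greenhouse at 25–30 °C. An emulsifiable formulation, water-diluted to the set dose, was then sprayed onto the foliage, and effects were scored three weeks later using previously defined criteria.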

rice flat sedge = assay: Test Example 3: herbicidal effect by foliage application, Wagner pot (Table 18, symbol E); assay type: in vivo, rice flat sedge (Cyperus iria); conditions: for herbicidal effect on rice flat sedge (E): 320 g/ha
Outline: as §3

southern crabgrass [4] = assay: Test Example 4: herbicidal effect by soil treatment (Table 19, symbol F); assay type: in vivo, southern crabgrass (Digitaria ciliaris); conditions: amount of applied herbicide 320 g/ha
Outline: (§4)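 Emulsion of test compound, water-diluted to predetermined amount, sprayed on soil after sowing (seed depth ~1.5 cm, sterilized diluvial soil). Greenhouse, 25–30° C. Effect graded at three weeks post-spray.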

blackgrass [5] = assay: Test Example 4: herbicidal effect by soil treatment (Table 19, symbol J); assay type: in vivo, blackgrass (Alopecurus myosuroides); conditions: amount of applied herbicide 320 g/ha
Outline: as §4

velvetleaf = assay: Test Example 4: herbicidal effect by soil treatment (Table 19, symbol M); assay type: in vivo, velvetleaf (Abutilon theophrasti); conditions: amount of applied herbicide 320 g/ha
Outline: as §4

redroot pigweed = assay: Test Example 4: herbicidal effect by soil treatment (Table 19, symbol N); assay type: in vivo, redroot pigweed (Amaranthus retroflexus); conditions: amount of applied herbicide 320 g/ha
Outline: as §4

southern crabgrass [6] = assay: Test Example 5: herbicidal effect by foliage application, plastic box (Table 20, symbol F); assay type: in vivo, southern crabgrass (Digitaria ciliaris); conditions: 320 g/ha
Outline: (§5)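 Post-emergence foliar test in sterilized diluvial soil. Compound applied as water-diluted emulsion at a predetermined rate to 14-day-old plants; evaluation at three weeks.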

barnyard grass [7] = assay: Test Example 5: herbicidal effect by foliage application, plastic box (Table 20, symbol H); assay type: in vivo, barnyard grass (Echinochloa crus-galli); conditions: 320 g/ha
Outline: as §5

blackgrass [8] = assay: Test Example 5: herbicidal effect by foliage application, plastic box (Table 20, symbol J); assay type: in vivo, blackgrass (Alopecurus myosuroides); conditions: foliage application, 320 g/ha, three weeks after application
Outline: as §5

Italian ryegrass = assay: Test Example 5: herbicidal effect by foliage application, plastic box (Table 20, symbol K); assay type: in vivo, Italian ryegrass (Lolium multiflorum); conditions: 320 g/ha
Outline: as §5

chickweed = assay: Test Example 5: herbicidal effect by foliage application, plastic box (Table 20, symbol P); assay type: in vivo, common chickweed (Stellaria media); conditions: 320 g/ha; for P: chickweed, herbicidal effect grade: foliage application, three weeks after application
Outline: as §5

persian speedwell = assay: Test Example 4: herbicidal effect by soil treatment (Table 19, symbol R); assay type: in vivo, Persian speedwell (Veronica persica); conditions: amount of applied herbicide 320 g/ha
Outline: as §4

[9] = amount of applied herbicide 320 g/ha
[10] = foliage application, three weeks after application
[11] = foliage application after 14-day growth, evaluated three weeks after application

## CCCC(=O)Oc1c(C)nn(C)c(=O)c1-c1c(-c2ccc(OC(C)C)cc2)sc2cc(F)ccc12 [3-020]
Japanese bulrush
  Herbicidal effect, B: Japanese bulrush: 3 (Herbicidal rate of 40% or more and less than 70%)
oval-leafed pondweed [1]
  Herbicidal effect, C: oval-leafed pondweed: 2 (Herbicidal rate of 20% or more and less than 40%)
Late watergrass
  herbicidal effect rating, A: late watergrass: 1 (Herbicidal rate of 5% or more and less than 20%)
oval-leafed pondweed [2]
  herbicidal effect rating, C: oval-leafed pondweed: 2 (Herbicidal rate of 20% or more and less than 40%)
Barnyard grass [3]; [9]
  herbicidal effect on H: barnyard grass: 4 (Herbicidal rate of 70% or more and less than 90%)
Rice flat sedge; [9]
  herbicidal effect on E: rice flat sedge: 5 (Herbicidal rate of 90% or more (almost completely withered))
Southern crabgrass [4]
  herbicidal effect, F: southern crabgrass: 0 (Herbicidal rate of 5% or less (almost no effect))
Blackgrass [5]
  herbicidal effect, J: blackgrass: 0 (Herbicidal rate of 5% or less (almost no effect))
velvetleaf
  herbicidal effect, M: velvetleaf: 0 (Herbicidal rate of 5% or less (almost no effect))
Redroot pigweed
  herbicidal effect, N: redroot pigweed: 4 (Herbicidal rate of 70% or more and less than 90%)
Southern crabgrass [6]; [10]
  F: southern crabgrass, herbicidal effect grade: 0 (Herbicidal rate of 5% or less (almost no effect))
Barnyard grass [7]; [10]
  H: barnyard grass, herbicidal effect grade: 2 (Herbicidal rate of 20% or more and less than 40%)
Blackgrass [8]
  J: blackgrass, herbicidal effect grade: 2 (Herbicidal rate of 20% or more and less than 40%)
Italian ryegrass; [10]
  K: Italian ryegrass, herbicidal effect grade: 2 (Herbicidal rate of 20% or more and less than 40%)
chickweed
  P: chickweed, herbicidal effect grade: 5 (Herbicidal rate of 90% or more (almost completely withered))

## CCCC(=O)Oc1c(C)nn(C)c(=O)c1-c1c(-c2ccc(F)cc2OCC)sc2cc(Cl)ccc12 [3-046]
Japanese bulrush
  Herbicidal effect, B: Japanese bulrush: 0 (Herbicidal rate of 5% or less (almost no effect))
oval-leafed pondweed [1]
  Herbicidal effect, C: oval-leafed pondweed: 0 (Herbicidal rate of 5% or less (almost no effect))
Late watergrass
  herbicidal effect rating, A: late watergrass: 0 (Herbicidal rate of 5% or less (almost no effect))
oval-leafed pondweed [2]
  herbicidal effect rating, C: oval-leafed pondweed: 1 (Herbicidal rate of 5% or more and less than 20%)
Barnyard grass [3]
  herbicidal effect on barnyard grass (H): 5 (Herbicidal rate of 90% or more (almost completely withered))
Rice flat sedge
  herbicidal effect on rice flat sedge (E): 5 (Herbicidal rate of 90% or more (almost completely withered))
Southern crabgrass [4]
  F: southern crabgrass, herbicidal effect grade: 0 (Herbicidal rate of 5% or less (almost no effect))
velvetleaf
  M: velvetleaf, herbicidal effect grade: 1 (Herbicidal rate of 5% or more and less than 20%)
Redroot pigweed
  N: redroot pigweed, herbicidal effect grade: 5 (Herbicidal rate of 90% or more (almost completely withered))
Persian speedwell
  R: persian speedwell, herbicidal effect grade: 4 (Herbicidal rate of 70% or more and less than 90%)
Southern crabgrass [6]; [10]
  F: southern crabgrass, herbicidal effect grade: 5 (Herbicidal rate of 90% or more (almost completely withered))
Barnyard grass [7]; [10]
  H: barnyard grass, herbicidal effect grade: 5 (Herbicidal rate of 90% or more (almost completely withered))
Blackgrass [8]
  J: blackgrass, herbicidal effect grade: 4 (Herbicidal rate of 70% or more and less than 90%)
Italian ryegrass; [10]
  K: Italian ryegrass, herbicidal effect grade: 0 (Herbicidal rate of 5% or less (almost no effect))
chickweed
  P: chickweed, herbicidal effect grade: 5 (Herbicidal rate of 90% or more (almost completely withered))

## COc1ccccc1-c1sc2cc(OCC3CC3(F)F)ccc2c1-c1c(O)c(C)nn(C)c1=O (stereo not shown) [3-131]
Japanese bulrush
  Herbicidal effect, B: Japanese bulrush: 5 (Herbicidal rate of 90% or more (almost completely withered))
oval-leafed pondweed [1]
  Herbicidal effect, C: oval-leafed pondweed: 5 (Herbicidal rate of 90% or more (almost completely withered))
Late watergrass
  herbicidal effect rating, A: late watergrass: 5 (Herbicidal rate of 90% or more (almost completely withered))
oval-leafed pondweed [2]
  herbicidal effect rating, C: oval-leafed pondweed: 5 (Herbicidal rate of 90% or more (almost completely withered))
Barnyard grass [3]
  herbicidal effect on barnyard grass (H): 5 (Herbicidal rate of 90% or more (almost completely withered))
Rice flat sedge
  herbicidal effect on rice flat sedge (E): 5 (Herbicidal rate of 90% or more (almost completely withered))
Southern crabgrass [4]
  F: southern crabgrass, herbicidal effect grade: 3 (Herbicidal rate of 40% or more and less than 70%)
Blackgrass [5]
  J: blackgrass, herbicidal effect grade: 4 (Herbicidal rate of 70% or more and less than 90%)
velvetleaf
  M: velvetleaf, herbicidal effect grade: 3 (Herbicidal rate of 40% or more and less than 70%)
Redroot pigweed
  N: redroot pigweed, herbicidal effect grade: 5 (Herbicidal rate of 90% or more (almost completely withered))
Southern crabgrass [6]; [10]
  F: southern crabgrass, herbicidal effect grade: 5 (Herbicidal rate of 90% or more (almost completely withered))
Barnyard grass [7]; [10]
  H: barnyard grass, herbicidal effect grade: 5 (Herbicidal rate of 90% or more (almost completely withered))
Blackgrass [8]
  J: blackgrass, herbicidal effect grade: 5 (Herbicidal rate of 90% or more (almost completely withered))
Italian ryegrass; [10]
  K: Italian ryegrass, herbicidal effect grade: 5 (Herbicidal rate of 90% or more (almost completely withered))
chickweed
  P: chickweed, herbicidal effect grade: 5 (Herbicidal rate of 90% or more (almost completely withered))

## CCCC(=O)Oc1c(C)nn(C)c(=O)c1-c1c(-c2ccc(C#N)cc2)sc2c(F)cccc12 [4-053]
Japanese bulrush
  Herbicidal effect, B: Japanese bulrush: 3 (Herbicidal rate of 40% or more and less than 70%)
oval-leafed pondweed [1]
  Herbicidal effect, C: oval-leafed pondweed: 2 (Herbicidal rate of 20% or more and less than 40%)
Late watergrass
  herbicidal effect rating, A: late watergrass: 4 (Herbicidal rate of 70% or more and less than 90%)
Barnyard grass [3]
  herbicidal effect on barnyard grass (H): 4 (Herbicidal rate of 70% or more and less than 90%)
Rice flat sedge
  herbicidal effect on rice flat sedge (E): 4 (Herbicidal rate of 70% or more and less than 90%)
Southern crabgrass [4]
  Herbicidal effect by soil treatment, F: southern crabgrass: 0 (Herbicidal rate of 5% or less (almost no effect))
Blackgrass [5]
  Herbicidal effect by soil treatment, J: blackgrass: 0 (Herbicidal rate of 5% or less (almost no effect))
velvetleaf
  Herbicidal effect by soil treatment, M: velvetleaf: 2 (Herbicidal rate of 20% or more and less than 40%)
Redroot pigweed
  Herbicidal effect by soil treatment, N: redroot pigweed: 5 (Herbicidal rate of 90% or more (almost completely withered))
Persian speedwell
  Herbicidal effect by soil treatment, R: persian speedwell: 5 (Herbicidal rate of 90% or more (almost completely withered))
Southern crabgrass [6]; [11]
  herbicidal effect on F: southern crabgrass (evaluation grade 0-5): 0 (Herbicidal rate of 5% or less (almost no effect))
Barnyard grass [7]; [11]
  herbicidal effect on H: barnyard grass (evaluation grade 0-5): 2 (Herbicidal rate of 20% or more and less than 40%)
Italian ryegrass; [11]
  herbicidal effect on K: Italian ryegrass (evaluation grade 0-5): 4 (Herbicidal rate of 70% or more and less than 90%)
chickweed; [11]
  herbicidal effect on P: chickweed (evaluation grade 0-5): 5 (Herbicidal rate of 90% or more (almost completely withered))

## COc1cc(F)ccc1-c1sc2cc(C)c(C)cc2c1-c1c(O)c(C)nn(C)c1=O [5-101]
Japanese bulrush
  Herbicidal effect, B: Japanese bulrush: 3 (Herbicidal rate of 40% or more and less than 70%)
oval-leafed pondweed [1]
  Herbicidal effect, C: oval-leafed pondweed: 3 (Herbicidal rate of 40% or more and less than 70%)
Late watergrass
  herbicidal effect rating, A: late watergrass: 0 (Herbicidal rate of 5% or less (almost no effect))
oval-leafed pondweed [2]
  herbicidal effect rating, C: oval-leafed pondweed: 2 (Herbicidal rate of 20% or more and less than 40%)
Barnyard grass [3]
  herbicidal effect on barnyard grass (H): 5 (Herbicidal rate of 90% or more (almost completely withered))
Rice flat sedge
  herbicidal effect on rice flat sedge (E): 3 (Herbicidal rate of 40% or more and less than 70%)
Southern crabgrass [4]
  F: southern crabgrass, herbicidal effect grade: 0 (Herbicidal rate of 5% or less (almost no effect))
Blackgrass [5]
  J: blackgrass, herbicidal effect grade: 0 (Herbicidal rate of 5% or less (almost no effect))
velvetleaf
  M: velvetleaf, herbicidal effect grade: 0 (Herbicidal rate of 5% or less (almost no effect))
Redroot pigweed
  N: redroot pigweed, herbicidal effect grade: 1 (Herbicidal rate of 5% or more and less than 20%)
Southern crabgrass [6]; [10]
  herbicidal effect on southern crabgrass (F): 4 (Herbicidal rate of 70% or more and less than 90%)
Barnyard grass [7]; [10]
  herbicidal effect on barnyard grass (H): 3 (Herbicidal rate of 40% or more and less than 70%)
Blackgrass [8]
  herbicidal effect on blackgrass (J): 4 (Herbicidal rate of 70% or more and less than 90%)
Italian ryegrass; [10]
  herbicidal effect on Italian ryegrass (K): 4 (Herbicidal rate of 70% or more and less than 90%)
